{"source": "patent US10203331B2", "about": "“Single cell drug response measurements via live cell interferometry” (The Regents of the University of California, priority 2011, dated 2019)", "type_in_all_cases": "cell-based, human", "key": {"[1]": {"test_system": "H929 multiple myeloma cells", "test": "LCI longitudinal single-cell mass accumulation profiling", "set-up": "mass accumulation rate (growth) of treated cells versus DMSO-treated controls: dose or concentration left out as unconfirmed", "details": "for mass accumulation rate (growth) of treated cells versus DMSO-treated controls: Tunicamycin, data over five hours", "excerpt": "The live cell interferometer has been described in detail previously (1). Briefly, the system is an optical microscope, based on a modified Veeco NT9300 optical profiler, with a 20×0.28NA Michelson interference objective that allows for the observation of not only lateral features with typical optical resolution (1.16 μm for the 20× objective) but also height dimensions of reflective objects below the scale of one nanometer. The Michelson interferometer is composed of a beam splitter, reference mirror and compensating fluid cell to adjust for optical path differences induced by fluid surrounding the specimen. The phase shifting interferometry (PSI) (14) method was used to capture phase images of the cell bodies in situ. During measurement, a piezoelectric translator decreases the light path a small amount causing a phase shift between the test and reference beams. The system records the irradiance of the resulting interference pattern at many different phase shifts and then converts the irradiance to phase wavefront data by integrating the irradiance data using a PSI algorithm. As currently implemented, the autofocus and PSI measurement cycle takes 12 seconds. The PSI measurement itself takes 1-2 seconds, and is limited by the camera frame rate (60 fps). In this experiment, one set of 25 images, containing 400-1,000 cells, was captured every 7 minutes. Each set of 25 images contained hundreds of cells, with data from the first five images presented here, and therefore each run includes ˜80 cells. All cells within each of the selected images were measured.\nThe software native to the Veeco NT9300 allows automated optical thickness measurements of cells selected manually from the phase image. The optical thickness is converted to mass as described in the text, using the conversion constant, α=1.8×10^−3 m^3 kg^−1, consistent with Ross. (9) The boundary of each cell was automatically selected by an algorithm that partitions objects from the background using a threshold determined from the histogram of pixel heights. (15) Conversion of the raw phase image into optical thickness uses a series of well established ‘phase unwrapping’ routines. […] This error is easily detected as a non-physical discontinuity in optical thickness, and corrected by adding back one wavelength of optical thickness to the affected pixels. […]\nH929 human multiple myeloma cells were maintained at 37° C. in 5% CO2 in RPMI 1640 growth media supplemented with 10% defined fetal bovine serum (HyClone) and antibiotics. […] Cell responses to external stimuli were measured for as long as seven hours in this configuration, and observed unperturbed cultures for up to twelve hours, although the upper limit of experiment duration has not been determined. […]"}, "[2]": {"test_system": "CHOP (DDIT3) mRNA", "test": "Quantitative RT-PCR for CHOP (DDIT3) mRNA in treated H929 cells", "details": "treated H929 population, over five hours", "procedure": "(§1) H929 cells were seeded in 6-well culture plates at a density of 1×10^6 cells/well. Before plating cells in the LCI's observation chamber, either 1 μL of Tunicamycin (T7765; Sigma-Aldrich) in DMSO, or DMSO alone were added to the media at a concentration of 10 mg/ml, DMSO/media (1:1000 dilution). Mass measurements commenced one hour after the cells were plated in the observation chamber in order to allow the experimental system to stabilize, i.e.; culture acclimation, temperature stabilization, etc. For cell cycle analysis, cells from each time point were collected and incubated with a hypotonic DNA-staining buffer containing propidium iodide and later analyzed by flow cytometry. RNA for each time point was extracted using the Trizol reagent (Invitrogen).\n(§2) CDNA was synthesized from 3 μg of total RNA with oligo(dT) primers using the Superscript III first strand cDNA synthesis kit (Invitrogen). RT-PCR for XBP1 spliced and unspliced isoforms were performed using Platinum Taq (Invitrogen) at an annealing temperature of 58° C. for 25 cycles. Quantitative RT-PCR for CHOP (DDIT3) mRNA was performed using the SYBR green real time PCR kit (Diagenode) and an Applied Biosystems (Foster City, Calif., USA) 7700 sequence detector as described (33). Samples were analyzed for 36b4 expression as a normalization control. Primer sequences are available on request."}, "[3]": {"test_system": "XBP1 mRNA splicing (XBP1-s)", "test": "RT-PCR for XBP1 spliced and unspliced isoforms in treated H929 cells", "details": "treated H929 population, over five hours", "procedure": "as §1, §2"}, "[4]": {"test_system": "H929 cells", "test": "Cell cycle analysis, propidium iodide flow cytometry", "procedure": "as §1"}}, "note": "“Also recorded” adds a separate entry of the source."}
{"substance": "Tunicamycin", "values": [{"measurement": "time at which suppression of growth of the treated population appears", "setting": "[1]; H929, treated vs untreated", "value": "within two hours"}, {"measurement": "mass accumulation rate (growth) of treated cells versus DMSO-treated controls", "setting": "[1]", "value": "grow more slowly than do the controls; also recorded: much lower"}, {"measurement": "mass accumulation rate (growth) of treated cells versus DMSO-treated controls", "setting": "[1]; listed as TM", "value": "slowing mass accumulation"}, {"measurement": "cell shrinkage or apoptosis", "setting": "[1]; with induction of XBP1 mRNA splicing", "value": "not cell shrinkage or apoptosis"}, {"measurement": "CHOP transcription factor expression", "setting": "[2]", "value": "up-regulation"}, {"measurement": "XBP1 alternative splicing (spliced form XBP1-s)", "setting": "[3]", "value": "alternative splicing"}, {"measurement": "XBP1 alternative splicing (spliced form XBP1-s)", "setting": "[3]; listed as TM", "value": "up-regulation"}, {"measurement": "cells in G1/G0", "setting": "[4]; by the end of five hours of treatment", "value": 50, "unit": "%"}, {"measurement": "G2/M phase population", "setting": "[4]; shift pronounced after three hours of exposure", "value": "rapid reduction"}]}
